Patent US9686994B2, “Use of ALS inhibitor herbicides for control of unwanted vegetation in ALS inhibitor herbicide tolerant beta vulgaris plants” (BAYER CROPSCIENCE AG, priority 2012, dated 2017)
“Also recorded” adds a separate entry of the source.

Legend:
[1] = test system: wild-type sugar beet commercial variety; test: Example 3: ALS inhibitor treatment of sugar beets, wild type; type: in vivo; conditions: foramsulfuron 12.5 g/ha, amidosulfuron 15 g/ha, iodosulfuron 3.5 g/ha, thiencarbazone-methyl 7.5 g/ha; with or without rapeseed oil methyl ester
From the text: (§1) The behaviour of regenerated sugar beet plants having the mutated SEQ.ID.NO:3 (heterozygote for this mutation) and a wild-type sugar beet commercial variety was compared.

[2] = test system: sugar beet plants where the proline at position 188 of the encoded ALS enzyme is substituted by a serine, Line C; test: Greenhouse trial: ALS inhibitor treatment of sugar beets in direct comparison, Line C; type: in vivo, Beta vulgaris L. ssp. vulgaris; conditions: day 14 after application at BBCH 14; scale 0% no damage to 100% completely killed; g/ha: foramsulfuron 13, iodosulfuron-methyl-Na 3.5, amidosulfuron 15, thiencarbazone-methyl 7.5, Bisbyribac-Na 50, metosulam 15
Experimental: (§2) Mutated sugar beet plants comprising SEQ.ID.NO:3 and SEQ.ID.NO:5 (on two different alleles) for use in the context of the present invention (as described in Example 4 above, “Line A”) were treated with different ALS inhibitors in direct comparison with sugar beet plants where the tryptophan at position 569 of the encoded ALS enzyme is substituted by a leucine (“Line B”), with sugar beet plants described in WO 98/02527 where the proline at position 188 of the encoded ALS enzyme is substituted by a serine (“Line C”), and a traditional variety (wild-type) sugar beet plant not having a mutation at positions 569 and 188 (“Line WT”).
(§3) Several groups of seeds of the four different mentioned sugar beet plants were sown separately in the greenhouse and grew up to stage BBCH 14 for Beta vulgaris L. ssp. vulgaris (i.e. 4 leaves (the second pair) unfolded) according to the BBCH monograph “Growth stages of mono- and dicotyledonous plants”, 2nd edition, 2001, ed. Uwe Meier, Federal Biological Research Centre for Agriculture and Forestry (Biologische Bundesanstalt für Land and Forstwirtschaft). Subsequently, the resulting separate groups of sugar beet plants were each individually treated with an ALS inhibitor (ALS-in) in the amounts (g/ha) indicated in Table 1.
(§4) On day 14 after application of the respective ALS inhibitor, the damage (i.e. the phytotoxicity) for each group of sugar beet plants was rated on a stratified scale from 0% (i.e. no damage, no phytotoxicity) to 100% (i.e. the plants were completely killed).

[3] = test system: traditional variety (wild-type) sugar beet plant not having a mutation at positions 569 and 188, Line WT; test: Greenhouse trial: ALS inhibitor treatment of sugar beets in direct comparison, Line WT; type: in vivo, Beta vulgaris L. ssp. vulgaris; conditions: day 14 after application at BBCH 14; scale 0% no damage to 100% completely killed; g/ha: foramsulfuron 13, iodosulfuron-methyl-Na 3.5, amidosulfuron 15, thiencarbazone-methyl 7.5, Bisbyribac-Na 50, metosulam 15
Experimental: as §2, §3, §4

[4] = test system: dual mutant sugar beet plant comprising SEQ.ID.NO:3 and SEQ.ID.NO:5 (NCIMB 42050); test: Example 4: ALS inhibitor treatment of sugar beets having further mutations in the ALS gene; type: in vivo; conditions: compared with the single mutant (position 569); even when put in composition with organic compounds
From the text: Subsequently, a mutated sugar beet plant was developed comprising SEQ.ID.NO:3 and SEQ.ID.NO:5 (on two different alleles). Such resulting dual mutant has been deposited under the Budapest Treaty under NCIMB 42050. A plant comprising both SEQ.ID.NO:3 and SEQ.ID.NO:5 can be generated by relying on several techniques, including, for instance, a subsequent mutagenesis step applied to the single mutant NCIMB 42051.
Then the resistance of this dual mutant plant (a mutation in one allele at amino acid 569 and a mutation in the other allele at amino acid 188) was compared with the single mutant (a mutation at position 569) sugar beet.

[5] = test system: mutated sugar beet plants comprising SEQ.ID.NO:3 and SEQ.ID.NO:5 (on two different alleles), Line A; test: Greenhouse trial: ALS inhibitor treatment of sugar beets in direct comparison, Line A; type: in vivo, Beta vulgaris L. ssp. vulgaris; conditions: day 14 after application at BBCH 14; scale 0% no damage to 100% completely killed; g/ha: foramsulfuron 13, iodosulfuron-methyl-Na 3.5, amidosulfuron 15, thiencarbazone-methyl 7.5, Bisbyribac-Na 50, metosulam 15
Experimental: as §2, §3, §4

[6] = test system: sugar beet plants where the tryptophan at position 569 of the encoded ALS enzyme is substituted by a leucine, Line B; test: Greenhouse trial: ALS inhibitor treatment of sugar beets in direct comparison, Line B; type: in vivo, Beta vulgaris L. ssp. vulgaris; conditions: day 14 after application at BBCH 14; scale 0% no damage to 100% completely killed; g/ha: foramsulfuron 13, iodosulfuron-methyl-Na 3.5, amidosulfuron 15, thiencarbazone-methyl 7.5, Bisbyribac-Na 50, metosulam 15
Experimental: as §2, §3, §4

[7] = test system: regenerated sugar beet plants having the mutated SEQ.ID.NO:3 (heterozygote for this mutation); test: Example 3: ALS inhibitor treatment of sugar beets, heterozygote mutant; type: in vivo; conditions: for resistance of the (heterozygote) mutated plants to the herbicide: foramsulfuron 12.5 g/ha, amidosulfuron 15 g/ha, iodosulfuron 3.5 g/ha, thiencarbazone-methyl 7.5 g/ha, up to 3 applications
From the text: as §1

Compound | sensitivity of the wild-type plant to the herbicide [1] | damage (phytotoxicity), average rating, Line C [2] [%] | damage (phytotoxicity), average rating, Line WT [3] [%] | resistance of the dual mutant plant to the herbicide [4] | damage (phytotoxicity), average rating, Line A [5] [%] | damage (phytotoxicity), average rating, Line B [6] [%] | resistance of the (heterozygote) mutated plants to the herbicide [7] | resistance of the (heterozygote) mutated plants, herbicide applied together with the organic compound ([7]; iodosulfuron 3.5 g/ha with 25 g/ha rapeseed oil methyl ester)
COC(=O)c1csc(C)c1S(=O)(=O)NC(=O)n1nc(OC)n(C)c1=O [Thiencarbazone-methyl, thiencarbazone-methyl] | very sensitive | 37.5 | 84.4 | good resistance | 8.1 | 35.6 | about the same level of resistance as for iodosulfuron | –
COc1nc(C)nc(NC(=O)NS(=O)(=O)c2cc(I)ccc2C(=O)O)n1 [iodosulfuron] | very sensitive | – | – | – | – | – | good level of resistance | resistance declined
COc1cc(OC)nc(NC(=O)NS(=O)(=O)N(C)S(C)(=O)=O)n1 [Amidosulfuron, amidosulfuron] | very sensitive | 51.9 | 73.1 | good resistance | 6.3 | 37.5 | same level of resistance | –
COc1cc(OC)nc(Oc2cccc(Oc3nc(OC)cc(OC)n3)c2C(=O)O)n1 [Bisbyribac-Na, bispyribac-sodium] | – | 71.7 | 80.0 | – | 17.5 | 38.1 | – | –
COc1cc(OC)nc(NC(=O)NS(=O)(=O)c2cc(NC=O)ccc2C(=O)N(C)C)n1 [Foramsulfuron, foramsulfuron] | very sensitive | 77.5 | 80.0 | – | 26.9 | 45.6 | good resistance; also recorded: best resistance | –
COC(=O)c1ccc(I)cc1S(=O)(=O)[N-]C(=O)Nc1nc(C)nc(OC)n1.[Na+] [Iodosulfuron-methyl-Na, iodosulfuron-methyl-sodium] | – | 80.0 | 82.5 | – | 22.5 | 38.8 | – | –
COc1cc(OC)n2nc(S(=O)(=O)Nc3c(Cl)ccc(C)c3Cl)nc2n1 [Metosulam, metosulam] | – | 69.4 | 79.4 | – | 13.1 | 40.6 | – | –
